{
  "source": "paper PMC10879502",
  "about": "“Linking ATP and allosteric sites to achieve superadditive binding with bivalent EGFR kinase inhibitors” (Communications Chemistry, 2024)",
  "type_in_all_cases": "binding",
  "settings_in_all_cases": "1 μM",
  "key": {"MEK5": {"biological_target": "T1, MEK5 (Homo sapiens, UniProt Q13163)", "T1 construct": "purchased Eurofins DiscoverX Corporation", "assay": "KINOMEscan"}, "[1]": {"biological_target": "TYK2(JH2domain-pseudokinase) (Homo sapiens, UniProt P29597)", "sequence (P29597 589-875 limits assumed)": "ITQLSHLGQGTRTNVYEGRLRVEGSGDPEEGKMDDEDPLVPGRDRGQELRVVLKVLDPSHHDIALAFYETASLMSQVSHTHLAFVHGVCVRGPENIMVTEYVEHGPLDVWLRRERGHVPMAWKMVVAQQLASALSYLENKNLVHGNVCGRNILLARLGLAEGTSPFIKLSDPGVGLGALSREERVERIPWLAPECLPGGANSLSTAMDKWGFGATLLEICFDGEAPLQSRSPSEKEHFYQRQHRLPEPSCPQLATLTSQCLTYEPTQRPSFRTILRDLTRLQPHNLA", "assay": "KINOMEscan"}, "[2]": {"biological_target": "T2, ABL1(F317I)-nonphosphorylated (Homo sapiens, UniProt P00519, F317I)", "T2 construct": "purchased Eurofins DiscoverX Corporation", "assay": "KINOMEscan"}, "EPHA4": {"biological_target": "EPHA4 (Homo sapiens, UniProt P54764)", "assay": "KINOMEscan"}, "DMPK": {"biological_target": "T3, DMPK (Homo sapiens, UniProt Q09013)", "T3 construct": "purchased Eurofins DiscoverX Corporation", "assay": "KINOMEscan"}, "GAK": {"biological_target": "T4, GAK (Homo sapiens, UniProt O14976)", "T4 construct": "purchased Eurofins DiscoverX Corporation", "assay": "KINOMEscan"}, "MAPKAPK2": {"biological_target": "T5, MAPKAPK2 (Homo sapiens, UniProt P49137)", "T5 construct": "purchased Eurofins DiscoverX Corporation", "assay": "KINOMEscan"}, "PIM3": {"biological_target": "PIM3 (Homo sapiens, UniProt Q86V86)", "assay": "KINOMEscan"}, "EGFR": {"biological_target": "EGFR (Homo sapiens, UniProt P00533)", "assay": "KINOMEscan"}, "468 kinases": {"tested_on": "468 kinases", "assay": "KINOMEscan selectivity score"}, "RIPK1": {"biological_target": "RIPK1 (Homo sapiens, UniProt Q13546)", "assay": "KINOMEscan"}, "RIPK2": {"biological_target": "RIPK2 (Homo sapiens, UniProt O43353)", "sequence (O43353 whole entry)": "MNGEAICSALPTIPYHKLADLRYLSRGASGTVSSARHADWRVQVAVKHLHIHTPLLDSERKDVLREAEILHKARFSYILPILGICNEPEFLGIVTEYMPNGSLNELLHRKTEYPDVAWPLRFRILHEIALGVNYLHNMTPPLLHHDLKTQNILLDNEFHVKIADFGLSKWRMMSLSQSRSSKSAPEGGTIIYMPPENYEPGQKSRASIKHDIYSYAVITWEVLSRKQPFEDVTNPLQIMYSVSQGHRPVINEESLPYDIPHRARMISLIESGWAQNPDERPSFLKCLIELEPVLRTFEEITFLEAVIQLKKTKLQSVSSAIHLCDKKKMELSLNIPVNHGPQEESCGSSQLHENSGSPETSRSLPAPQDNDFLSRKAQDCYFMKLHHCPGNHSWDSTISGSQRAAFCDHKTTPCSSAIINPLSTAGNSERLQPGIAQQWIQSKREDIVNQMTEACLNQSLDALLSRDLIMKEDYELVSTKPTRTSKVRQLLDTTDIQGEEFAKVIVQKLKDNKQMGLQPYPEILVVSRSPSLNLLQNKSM", "assay": "KINOMEscan"}, "FGFR2": {"biological_target": "FGFR2 (Homo sapiens, UniProt P21802)", "sequence (P21802 22-821)": "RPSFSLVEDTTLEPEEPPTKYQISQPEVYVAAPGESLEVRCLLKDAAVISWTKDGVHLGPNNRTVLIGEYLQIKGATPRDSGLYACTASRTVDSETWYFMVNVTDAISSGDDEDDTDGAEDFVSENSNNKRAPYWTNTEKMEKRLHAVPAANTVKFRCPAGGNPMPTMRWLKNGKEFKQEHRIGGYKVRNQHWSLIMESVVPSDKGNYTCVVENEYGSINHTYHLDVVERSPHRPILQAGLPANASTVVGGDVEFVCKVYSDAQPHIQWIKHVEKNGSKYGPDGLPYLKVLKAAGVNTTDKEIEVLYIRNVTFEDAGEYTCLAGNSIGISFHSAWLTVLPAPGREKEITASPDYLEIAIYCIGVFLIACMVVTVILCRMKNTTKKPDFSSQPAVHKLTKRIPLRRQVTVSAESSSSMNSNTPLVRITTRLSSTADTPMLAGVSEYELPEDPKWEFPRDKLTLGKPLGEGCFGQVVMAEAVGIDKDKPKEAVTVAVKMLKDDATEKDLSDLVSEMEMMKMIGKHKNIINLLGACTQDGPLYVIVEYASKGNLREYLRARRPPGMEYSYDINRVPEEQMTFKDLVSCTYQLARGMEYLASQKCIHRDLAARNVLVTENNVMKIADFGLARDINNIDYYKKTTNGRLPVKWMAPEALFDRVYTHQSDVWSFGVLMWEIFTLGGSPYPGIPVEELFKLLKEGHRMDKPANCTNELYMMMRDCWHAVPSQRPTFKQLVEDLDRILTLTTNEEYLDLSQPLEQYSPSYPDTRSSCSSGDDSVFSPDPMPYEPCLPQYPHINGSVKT", "assay": "KINOMEscan"}, "PRKCQ": {"biological_target": "PRKCQ (Homo sapiens, UniProt Q04759)", "assay": "KINOMEscan"}, "CDK2": {"biological_target": "CDK2 (Homo sapiens, UniProt P24941)", "assay": "KINOMEscan"}, "SLK": {"biological_target": "SLK (Homo sapiens, UniProt Q9H2G2)", "assay": "KINOMEscan"}, "TNK2": {"biological_target": "T6, TNK2 (Homo sapiens, UniProt Q07912)", "T6 construct": "purchased Eurofins DiscoverX Corporation", "assay": "KINOMEscan"}, "BMX": {"biological_target": "T7, BMX (Homo sapiens, UniProt P51813)", "T7 construct": "purchased Eurofins DiscoverX Corporation (KINOMEscan)", "assay": "KINOMEscan"}, "KIT(V559D+V654A)": {"biological_target": "T8, KIT(V559D+V654A) (Homo sapiens, UniProt P10721, V559D/V654A)", "T8 construct": "purchased Eurofins DiscoverX Corporation", "T8 sequence (P10721 26-976 V559D/V654A)": "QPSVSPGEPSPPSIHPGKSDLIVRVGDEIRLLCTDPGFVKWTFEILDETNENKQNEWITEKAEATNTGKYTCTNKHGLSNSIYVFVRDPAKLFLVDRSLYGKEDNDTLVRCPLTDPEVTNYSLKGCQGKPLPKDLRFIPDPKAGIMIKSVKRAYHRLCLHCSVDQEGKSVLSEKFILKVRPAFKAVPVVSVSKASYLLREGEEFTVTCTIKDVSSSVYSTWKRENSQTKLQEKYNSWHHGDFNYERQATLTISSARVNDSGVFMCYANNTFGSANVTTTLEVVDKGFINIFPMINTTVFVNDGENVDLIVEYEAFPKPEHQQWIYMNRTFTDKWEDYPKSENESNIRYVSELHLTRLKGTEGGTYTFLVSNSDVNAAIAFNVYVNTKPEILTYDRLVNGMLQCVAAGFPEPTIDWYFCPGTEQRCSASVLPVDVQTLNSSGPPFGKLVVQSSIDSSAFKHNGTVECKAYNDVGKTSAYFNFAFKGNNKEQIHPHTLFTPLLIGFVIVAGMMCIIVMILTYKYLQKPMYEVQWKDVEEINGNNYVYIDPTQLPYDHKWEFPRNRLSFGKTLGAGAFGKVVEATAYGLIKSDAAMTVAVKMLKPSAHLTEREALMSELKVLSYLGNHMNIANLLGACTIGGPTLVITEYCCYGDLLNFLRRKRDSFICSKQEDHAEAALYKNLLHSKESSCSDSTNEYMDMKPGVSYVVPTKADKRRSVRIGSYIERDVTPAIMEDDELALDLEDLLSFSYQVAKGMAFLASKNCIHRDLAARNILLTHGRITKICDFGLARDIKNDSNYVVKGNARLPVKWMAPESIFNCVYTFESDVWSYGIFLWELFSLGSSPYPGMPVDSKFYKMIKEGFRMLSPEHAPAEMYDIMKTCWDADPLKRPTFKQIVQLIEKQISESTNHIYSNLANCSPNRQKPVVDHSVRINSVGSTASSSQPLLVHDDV", "assay": "KINOMEscan"}, "HIPK1": {"biological_target": "T9, HIPK1 (Homo sapiens, UniProt Q86Z02)", "T9 construct": "purchased Eurofins DiscoverX Corporation", "assay": "KINOMEscan"}, "EPHA2": {"biological_target": "EPHA2 (Homo sapiens, UniProt P29317)", "sequence (P29317 24-976)": "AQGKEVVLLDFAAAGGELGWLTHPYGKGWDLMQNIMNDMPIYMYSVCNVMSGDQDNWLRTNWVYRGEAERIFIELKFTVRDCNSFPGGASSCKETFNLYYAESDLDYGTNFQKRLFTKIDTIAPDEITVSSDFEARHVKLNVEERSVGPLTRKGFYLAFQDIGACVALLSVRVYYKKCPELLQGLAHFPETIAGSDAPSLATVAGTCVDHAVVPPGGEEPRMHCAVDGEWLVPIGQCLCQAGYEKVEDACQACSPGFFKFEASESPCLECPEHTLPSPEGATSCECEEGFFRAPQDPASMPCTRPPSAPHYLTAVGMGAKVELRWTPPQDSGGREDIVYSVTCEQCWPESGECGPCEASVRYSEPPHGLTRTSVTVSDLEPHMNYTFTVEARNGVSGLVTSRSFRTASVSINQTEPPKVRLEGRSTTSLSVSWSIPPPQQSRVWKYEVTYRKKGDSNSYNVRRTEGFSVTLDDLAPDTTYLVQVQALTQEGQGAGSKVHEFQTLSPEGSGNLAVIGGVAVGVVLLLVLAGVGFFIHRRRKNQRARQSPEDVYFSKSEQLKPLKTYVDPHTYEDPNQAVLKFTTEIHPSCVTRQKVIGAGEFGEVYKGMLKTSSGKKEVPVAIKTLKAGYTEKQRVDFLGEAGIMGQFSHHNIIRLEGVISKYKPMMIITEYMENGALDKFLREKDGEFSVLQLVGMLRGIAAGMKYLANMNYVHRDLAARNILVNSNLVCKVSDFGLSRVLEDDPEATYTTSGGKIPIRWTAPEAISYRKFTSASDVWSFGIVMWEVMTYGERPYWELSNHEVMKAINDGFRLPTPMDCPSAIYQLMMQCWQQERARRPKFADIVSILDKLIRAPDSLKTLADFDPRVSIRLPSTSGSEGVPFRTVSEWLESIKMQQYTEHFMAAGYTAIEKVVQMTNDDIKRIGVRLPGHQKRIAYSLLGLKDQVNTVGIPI", "assay": "KINOMEscan"}, "PFCDPK1(P.falciparum)": {"biological_target": "PFCDPK1(P.falciparum) (Plasmodium falciparum, UniProt P62344)", "sequence (P62344 whole entry)": "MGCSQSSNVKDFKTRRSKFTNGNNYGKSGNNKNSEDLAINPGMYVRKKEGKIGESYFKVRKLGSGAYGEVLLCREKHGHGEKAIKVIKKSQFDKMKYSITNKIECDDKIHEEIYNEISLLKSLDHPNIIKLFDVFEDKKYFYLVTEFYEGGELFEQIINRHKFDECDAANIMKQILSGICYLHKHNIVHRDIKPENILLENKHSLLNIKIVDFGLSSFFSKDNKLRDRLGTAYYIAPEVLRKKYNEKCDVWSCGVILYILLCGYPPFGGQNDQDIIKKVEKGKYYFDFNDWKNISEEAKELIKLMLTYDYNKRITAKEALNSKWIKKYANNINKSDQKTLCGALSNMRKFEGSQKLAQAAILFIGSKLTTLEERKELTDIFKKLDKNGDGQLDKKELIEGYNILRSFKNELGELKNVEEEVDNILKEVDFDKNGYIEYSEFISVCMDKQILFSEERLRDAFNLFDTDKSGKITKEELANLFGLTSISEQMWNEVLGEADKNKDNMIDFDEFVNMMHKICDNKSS", "assay": "KINOMEscan"}, "KIT(D816H)": {"biological_target": "T10, KIT(D816H) (Homo sapiens, UniProt P10721, D816H)", "T10 construct": "purchased Eurofins DiscoverX (KINOMEscan)", "T10 sequence (P10721 26-976 D816H)": "as the sequence (P10721 26-976 V559D/V654A) above, with D534V, A629V, D791H counted along it", "assay": "KINOMEscan"}, "PLK1": {"biological_target": "PLK1 (Homo sapiens, UniProt P53350)", "assay": "KINOMEscan"}, "DRAK2": {"biological_target": "T11, DRAK2 (Homo sapiens, UniProt O94768)", "T11 construct": "purchased Eurofins DiscoverX Corporation", "assay": "KINOMEscan"}, "PIP5K2B": {"biological_target": "PIP5K2B (Homo sapiens, UniProt P78356)", "sequence (P78356 whole entry)": "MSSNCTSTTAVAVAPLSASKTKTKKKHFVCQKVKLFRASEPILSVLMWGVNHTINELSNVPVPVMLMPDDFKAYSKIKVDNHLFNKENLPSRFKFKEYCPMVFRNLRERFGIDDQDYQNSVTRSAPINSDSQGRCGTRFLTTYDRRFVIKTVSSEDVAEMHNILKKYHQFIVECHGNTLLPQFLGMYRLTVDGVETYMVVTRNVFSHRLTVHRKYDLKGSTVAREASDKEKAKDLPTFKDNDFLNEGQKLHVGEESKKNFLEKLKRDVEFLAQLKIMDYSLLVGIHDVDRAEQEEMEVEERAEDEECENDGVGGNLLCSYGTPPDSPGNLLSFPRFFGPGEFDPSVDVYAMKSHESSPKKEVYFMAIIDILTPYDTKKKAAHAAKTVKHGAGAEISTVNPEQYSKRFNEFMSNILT", "assay": "KINOMEscan"}, "FLT3-autoinhibited": {"biological_target": "T12, FLT3-autoinhibited (Homo sapiens, UniProt P36888)", "T12 construct": "purchased Eurofins DiscoverX Corporation", "assay": "KINOMEscan"}, "ICK": {"biological_target": "T13, ICK (Homo sapiens, UniProt Q9UPZ9)", "T13 construct": "purchased Eurofins DiscoverX (KINOMEscan)", "assay": "KINOMEscan"}, "NEK2": {"biological_target": "T14, NEK2 (Homo sapiens, UniProt P51955)", "T14 construct": "purchased Eurofins DiscoverX Corporation", "assay": "KINOMEscan"}, "WEE2": {"biological_target": "WEE2 (Homo sapiens, UniProt P0C1S8)", "assay": "KINOMEscan"}, "GRK1": {"biological_target": "T15, GRK1 (Homo sapiens, UniProt Q15835)", "T15 construct": "purchased Eurofins DiscoverX Corporation", "assay": "KINOMEscan"}, "[3]": {"biological_target": "RPS6KA4(Kin.Dom.1-N-terminal) (Homo sapiens, UniProt O75676)", "assay": "KINOMEscan"}, "RET(M918T)": {"biological_target": "RET(M918T) (Homo sapiens, UniProt P07949, M918T)", "assay": "KINOMEscan"}, "PKAC-beta": {"biological_target": "PKAC-beta (Homo sapiens, UniProt P22694)", "assay": "KINOMEscan"}, "NEK3": {"biological_target": "T16, NEK3 (Homo sapiens, UniProt P51956)", "T16 construct": "purchased Eurofins DiscoverX Corporation", "assay": "KINOMEscan"}, "EGFR(T790M)": {"biological_target": "EGFR(T790M) (Homo sapiens, UniProt P00533, T790M)", "assay": "KINOMEscan"}, "PIK3CD": {"biological_target": "PIK3CD (Homo sapiens, UniProt O00329)", "assay": "KINOMEscan"}, "ERBB4": {"biological_target": "ERBB4 (Homo sapiens, UniProt Q15303)", "assay": "KINOMEscan"}, "PIK3CA(M1043I)": {"biological_target": "PIK3CA(M1043I) (Homo sapiens, UniProt P42336, M1043I)", "assay": "KINOMEscan"}, "MAPKAPK5": {"biological_target": "T17, MAPKAPK5 (Homo sapiens, UniProt Q8IW41)", "T17 construct": "purchased Eurofins DiscoverX Corporation", "T17 sequence (Q8IW41 whole entry)": "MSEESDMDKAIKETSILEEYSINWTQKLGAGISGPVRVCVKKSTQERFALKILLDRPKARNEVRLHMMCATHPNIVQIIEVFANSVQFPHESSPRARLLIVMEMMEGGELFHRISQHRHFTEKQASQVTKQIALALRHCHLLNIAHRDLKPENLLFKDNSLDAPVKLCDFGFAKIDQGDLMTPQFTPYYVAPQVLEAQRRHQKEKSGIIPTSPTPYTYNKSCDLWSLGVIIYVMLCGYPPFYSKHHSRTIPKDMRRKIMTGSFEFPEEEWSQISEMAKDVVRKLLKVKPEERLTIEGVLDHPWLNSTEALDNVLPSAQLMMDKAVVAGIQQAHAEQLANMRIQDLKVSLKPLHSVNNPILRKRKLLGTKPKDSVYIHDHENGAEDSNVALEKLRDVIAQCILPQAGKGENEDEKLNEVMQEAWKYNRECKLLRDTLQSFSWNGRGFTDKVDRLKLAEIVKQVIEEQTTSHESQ", "assay": "KINOMEscan"}, "QSK": {"biological_target": "QSK (Homo sapiens, UniProt Q9Y2K2)", "assay": "KINOMEscan"}, "PCTK3": {"biological_target": "PCTK3 (Homo sapiens, UniProt Q07002)", "assay": "KINOMEscan"}},
  "data": [
    {"molecule": "C=CC(=O)Nc1ccc(OC)c(Nc2cc(-c3[nH]c(CC)nc3-c3cccc(NC(=O)c4cccc5c4NC(=O)c4ccccc4N5)c3)ccn2)c1", "note": "[Compound 4]", "values": [
      {"measurement": "POC", "setting": "MEK5", "value": "41% of control"},
      {"measurement": "POC", "setting": "[1]", "value": "100% of control"},
      {"measurement": "POC", "setting": "[2]", "value": "40% of control"},
      {"measurement": "POC", "setting": "EPHA4", "value": "95% of control"},
      {"measurement": "POC", "setting": "DMPK", "value": "45% of control"},
      {"measurement": "POC", "setting": "GAK", "value": "16% of control"},
      {"measurement": "POC", "setting": "MAPKAPK2", "value": "100% of control"},
      {"measurement": "POC", "setting": "PIM3", "value": "100% of control"},
      {"measurement": "POC", "setting": "EGFR", "value": "17% of control"},
      {"measurement": "selectivity score S(35)", "setting": "468 kinases", "value": 0.084},
      {"measurement": "POC", "setting": "RIPK1", "value": "100% of control"},
      {"measurement": "POC", "setting": "RIPK2", "value": "62% of control"},
      {"measurement": "POC", "setting": "FGFR2", "value": "100% of control"},
      {"measurement": "POC", "setting": "PRKCQ", "value": "18% of control"},
      {"measurement": "POC", "setting": "CDK2", "value": "95% of control"},
      {"measurement": "POC", "setting": "SLK", "value": "100% of control"},
      {"measurement": "POC", "setting": "TNK2", "value": "3.8% of control"},
      {"measurement": "POC", "setting": "BMX", "value": "66% of control"},
      {"measurement": "POC", "setting": "KIT(V559D+V654A)", "value": "93% of control"},
      {"measurement": "POC", "setting": "HIPK1", "value": "51% of control"},
      {"measurement": "POC", "setting": "EPHA2", "value": "100% of control"},
      {"measurement": "POC", "setting": "PFCDPK1(P.falciparum)", "value": "87% of control"},
      {"measurement": "POC", "setting": "KIT(D816H)", "value": "39% of control"},
      {"measurement": "POC", "setting": "PLK1", "value": "50% of control"},
      {"measurement": "POC", "setting": "DRAK2", "value": "94% of control"},
      {"measurement": "POC", "setting": "PIP5K2B", "value": "100% of control"},
      {"measurement": "POC", "setting": "FLT3-autoinhibited", "value": "100% of control"},
      {"measurement": "POC", "setting": "ICK", "value": "100% of control"},
      {"measurement": "POC", "setting": "NEK2", "value": "98% of control"},
      {"measurement": "POC", "setting": "WEE2", "value": "98% of control"},
      {"measurement": "POC", "setting": "GRK1", "value": "94% of control"},
      {"measurement": "POC", "setting": "[3]", "value": "96% of control"},
      {"measurement": "POC", "setting": "RET(M918T)", "value": "99% of control"},
      {"measurement": "POC", "setting": "PKAC-beta", "value": "98% of control"},
      {"measurement": "POC", "setting": "NEK3", "value": "100% of control"},
      {"measurement": "POC", "setting": "EGFR(T790M)", "value": "12% of control"},
      {"measurement": "POC", "setting": "PIK3CD", "value": "71% of control"},
      {"measurement": "POC", "setting": "ERBB4", "value": "4.9% of control"},
      {"measurement": "POC", "setting": "PIK3CA(M1043I)", "value": "55% of control"},
      {"measurement": "POC", "setting": "MAPKAPK5", "value": "100% of control"},
      {"measurement": "POC", "setting": "QSK", "value": "100% of control"},
      {"measurement": "POC", "setting": "PCTK3", "value": "93% of control"}
    ]}
  ]
}
